Measurements reported in publication PMC11992618, “Development of cyclopeptide inhibitors specifically disrupting FXR–coactivator interaction in the intestine as a novel therapeutic strategy for MASH” (Life Metabolism, 2025).

What was measured:
[1] = molecular target: T1, hFXR (Homo sapiens, UniProt Q96RI1); assay: Luciferase reporter assay, FXR antagonism in transfected HEK293T cells; assay type: cell-based; conditions: 100 µmol/L, in the presence of GW4064, HEK293T
T1 construct: expressed in transfected cells; host or cells: HEK293T
T1 sequence (Q96RI1 1-472 isoform Q96RI1-2): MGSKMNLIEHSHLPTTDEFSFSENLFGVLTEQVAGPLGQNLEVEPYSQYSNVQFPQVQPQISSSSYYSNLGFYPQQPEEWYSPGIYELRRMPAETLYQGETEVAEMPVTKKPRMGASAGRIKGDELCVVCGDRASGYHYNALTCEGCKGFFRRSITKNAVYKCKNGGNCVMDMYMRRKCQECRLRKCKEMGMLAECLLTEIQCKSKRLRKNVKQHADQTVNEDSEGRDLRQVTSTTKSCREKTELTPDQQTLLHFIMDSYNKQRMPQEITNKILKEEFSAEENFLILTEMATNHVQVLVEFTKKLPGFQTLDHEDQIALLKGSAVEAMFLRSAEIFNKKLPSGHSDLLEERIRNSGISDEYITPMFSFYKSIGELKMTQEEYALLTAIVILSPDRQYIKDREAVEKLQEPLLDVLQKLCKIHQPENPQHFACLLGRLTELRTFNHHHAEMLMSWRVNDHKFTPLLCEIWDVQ
Experimental: HEK293T cells were used for the luciferase report assays and were cultured in DMEM with 10% FBS. The cells were incubated in DMEM media with 1% FBS for 4–6 h and then exposed to the indicated concentrations of compounds for 24 h.
For the FXR antagonism experiment, HEK293T cells were seeded in 96-well plates and transfected with pCMV-Script-hFXR and pGL4.11-hSHP-luciferase at a density of 3 × 10^4 cells/well, before culturing overnight. The compounds at indicated concentrations were added to the cells and incubated at 37°C for 1 h, before stimulating with 1% DMSO (negative control) and 5 μmol/L GW4064 (positive control) for 24 h. For the FXR agonism experiment, HEK293T cells were seeded in 96-well plates and transfected with pCMV-Script-hFXR and pGL4.11-hSHP-luciferase at a density of 3 × 10^4 cells/well, before culturing overnight. Then compounds at indicated concentrations were added to the cells and incubated at 37°C for 24 h. […]
The luciferase activities and cell viabilities were detected by the FIREFLYGLO Luciferase Assay System and Cell Titer-Blue® Cell Viability Assay according to the manufacturer’s instructions. Firefly luciferase activities and cell viabilities were measured using Spectra Max M5e (Molecular Devices).

[2] = test system: FXR signaling (Shp) in intestinal organoids; assay: FXR target gene expression in intestinal organoids; assay type: cell-based, mouse; conditions: DC646 50 μmol/L, GW4064 10 μmol/L, 24 h
From the text: Intestinal crypts were isolated from 6- to 8-week-old C57BL/6 mice and Fxr^△IE mice as previously described with minor revision. Briefly, the abdomen of the mouse was dissected, and the small intestine was isolated with fats removed. The isolated intestine was flushed with cold PBS to remove the luminal contents. Then, the intestine was opened longitudinally and washed three times with PBS gently. The tissue was cut into small fragments (2 mm^2) and further washed three times with cold PBS gently, followed by incubation with 5 mmol/L EDTA-PBS at 4°C. After 40 min, the fragments were vortexed vigorously, and then the suspension was filtered through a […] and centrifuged at 50 g for 10 min. The crypts were counted and plated with Matrigel (1:1, 25 μL) and 500 μL IntestiCult Organoid Growth Medium with Supplements 1 and 2. The isolated crypts were cultured for 3–5 days and treated with indicated chemicals as described.
The intestine and liver were frozen in liquid nitrogen and stored at −80°C. RNA was extracted, and complementary DNA was synthesized from 1 μg total RNA. RT-qPCR was performed on a Bio-Rad CFX384 Touch detection system (Bio-Rad). The primer sequences for RT-qPCR are shown in Supplementary Table S5. RNA levels were analyzed by 2-^ΔΔCt, normalized to 18S ribosomal RNA and expressed as fold change relative to the control group. […]

In the case of `CC(C)C[C@@H]1NC(=O)[C@@H]2CN(CCO2)c2cccc3c2c(cn3[Si](C(C)C)(C(C)C)C(C)C)C[C@H](NS(=O)(=O)C(F)(F)F)C(=O)OCCCCNC(=O)[C@H](CC(C)C)NC(=O)[C@@H]2CN(CCO2)c2cccc3c2c(cn3[Si](C(C)C)(C(C)C)C(C)C)C[C@H](NS(=O)(=O)C(F)(F)F)C(=O)OCCCCNC1=O` [DC646, N,N'-((1^2R,1^4S,16^2R,16^4S,4R,13R,19R,28R)-13,28-diisobutyl-5,12,15,20,27,30-hexaoxo-2^1,17^1-bis(triisopropylsilyl)-2^1H,17^1H-6,21-dioxa-11,14,26,29-tetraaza-1(4,2),16(2,4)-dimorpholina-2,17(4,3)-diindolacyclotriacontaphane-4,19-diyl)bis(1,1,1-trifluoromethanesulfonamide)], the “Suppression of FXR activation (relative luciferase activity)” value [1] is reported as “more than 70%”, the “mRNA expression of GW4064-induced FXR target gene Shp” value ([2]; Fxr^△IE organoids) is reported as “not observed” and the “mRNA expression of GW4064-induced FXR target gene Shp” value ([2]; WT organoids) is reported as “effectively reversed”.
